We go through five substances from patent publication US6136784A, “Amylin agonist pharmaceutical compositions containing insulin” (Amylin Pharmaceuticals, Inc., priority 1998, dated 2000).

Where two headings read alike, the source gives them in different places. Positions of bridges follow the written chain, without caps; N, C: chain ends. No end group written: not given here.

In series [1] the test system is insulin-stimulated glycogen synthesis in soleus muscle. Briefly: Soleus muscle assay (inhibition of insulin-stimulated glycogen synthesis). Conditions: 7.1 nM insulin. Format: cell-based, rat. The procedure:
Assays of biological activity of amylin agonists in the soleus muscle may be performed using previously described methods (Leighton, B. and Cooper, Nature, 335:632-635 (1988); Cooper, et al., Proc. Natl. Acad. Sci. USA 85:7763-7766 (1988)), in which amylin agonist activity may be assessed by measuring the inhibition of insulin-stimulated glycogen synthesis. The soleus muscle assay is also described below.
Determination of amylin agonist activity of compounds was carried out using the soleus muscle assay as follows. Male Harlan Sprague-Dawley rats of approximately 200 g mass were used in order to maintain mass of the split soleus muscle less than 40 mg. The animals were fasted for 4 hours prior to sacrifice by decapitation. The skin was stripped from the lower limb which was then pinned out on corkboard. The tendo achilles was cut just above os calcis and m. gastrocnemius reflected out from the posterior aspect of the tibia. M. soleus, a small 15-20 mm long, 0.5 mm thick flat muscle on the bone surface of m. gastrocnemius was then stripped clear and the perimysium cleaned off using fine scissors and forceps. […]
^14 C-glycogen determination was performed in a 7 mL scintillation vial. […] The remaining glycogen was redissolved in 1 mL water and 4 mL scintillation fluid and counted for ^14 C. […]

For series [2] the following is noted: cited from earlier work.
For series [3] the following is noted: 30-microgram doses four times per day, 14 days; p=0.003; cited from earlier work.
The conditions of series [4]: intravenous infusion; cited from earlier work.
The conditions of series [5]: self injected three times per day, 14 days, plus usual insulin; cited from earlier work.
For series [6] the following is noted: 28 days, cited from earlier work.
Series [7] relates to diabetic BB rats. Briefly: Phenol red gastric emptying assay, diabetic rats. Format: in vivo, rat. Conditions: sc bolus 5 minutes before gavage, ±0.18 log units. An excerpt:
(§1) Methods of measuring the rate of gastric emptying are disclosed in, for example, Young et al., Diabetolocia, 38(6):642-648 (1995). In a phenol red method, which is described below, conscious rats receive by gavage an acoloric gel containing methyl cellulose and a phenol red indicator. Twenty minutes after gavage, animals are anesthetized using halothane, the stomach exposed and clamped at the pyloric and lower esophageal sphincters, removed and opened into an alkaline solution. Stomach content may be derived from the intensity of the phenol red in the alkaline solution, measured by absorbance at a wavelength of 560 nm. […] Tritium in the plasma separated from tail blood is collected at various timepoints and detected in a beta counter. […]
(§2) Gastric emptying was measured using a modification (Plourde et al., Life Sci. 53:857-862 (1993)) of the original method of Scarpignato et al. (Arch. Int. Pharmacodyn. Ther. 246:286-295 (1980)). […] Stomach content was derived from the intensity of the phenol red in the alkaline solution, measured by absorbance at a wavelength of 560 nm. […] In other experiments, particulate gastric contents were centrifuged to clear the solution for absorbance measurements. Where the diluted gastric contents remained turbid, the spectroscopic absorbance due to phenol red was derived as the difference between that present in alkaline vs acetified diluent. […]

The subject of series [8] is Harlan Sprague Dawley rats. Briefly: Tritiated glucose gastric emptying assay. Conditions: sc 1 minute before gavage of tritiated glucose. The class given is in vivo, rat. An excerpt:
Methods of measuring the rate of gastric emptying are disclosed in, for example, Young et al., Diabetolocia, 38(6):642-648 (1995). In a phenol red method, which is described below, conscious rats receive by gavage an acoloric gel containing methyl cellulose and a phenol red indicator. Twenty minutes after gavage, animals are anesthetized using halothane, the stomach exposed and clamped at the pyloric and lower esophageal sphincters, removed and opened into an alkaline solution. Stomach content may be derived from the intensity of the phenol red in the alkaline solution, measured by absorbance at a wavelength of 560 nm. In a tritiated glucose method, which is described in Example 9 below, conscious rats are gavaged with tritiated glucose in water. The rats are gently restrained by the tail, the tip of which is anesthetized using lidocaine. Tritium in the plasma separated from tail blood is collected at various timepoints and detected in a beta counter. Test compounds are normally administered about one minute before gavage.
Conscious, non-fasted, Harlan Sprague Dawley rats were restrained by the tail, the tip of which was anesthetized using 2% lidocaine. Tritium in plasma separated from tail blood collected 0, 15, 30, 60, 90 and 120 minutes after gavage was detected in a beta counter. […]

For series [9], the system named is Harlan Sprague Dawley (non-diabetic) rats. Put plainly: Phenol red gastric emptying assay, normal rats. Conditions: sc bolus 5 minutes before gavage, ±0.19 log units. Format: in vivo, rat.
Excerpt: as §1, §2

The conditions of series [10]: in vivo, sc; cited from earlier work.

As usually defined, the EC50 is the midpoint of the concentration-response curve. A high value points to weaker potency. Substance “^2,7 Cyclo-[^2 Asp,^7 Lys]-h-Amylin (KDNTATKATQRLANFLVHSSNNFGAILSSTNVGSNTY; lactam 2-7; ends not checked; UniProt P10997 34-70, looked up, variant C2D C7K) [compound 2]” displayed an EC50 in series [1] of 6.62 nM.

For ^25,28 Pro-h-Amylin [compound 6], the EC50 in series [1] is 13.2 nM.

For ^25,28,29 Pro-h-Amylin [compound 12], the Tolerability result in [2] (30-microgram dose) was “well tolerated”. In addition, the “Lowering of fructosamine compared to placebo” value in series [2] (30-microgram doses four times per day, 28 days, p=0.003) is 33 µmol/L. Besides, the “Lowering of 24-hour average blood-glucose concentrations compared to placebo” value in [2] (30-microgram doses four times per day, 28 days, p=0.009) is 31 mg/dL. The “Reduction of average blood-glucose concentrations over a 24-hour observation period compared to placebo” value in series [3] is 35 mg/dL. The Post-meal blood-glucose concentrations result in series [4] is reported as “significantly reduced”. In addition, the “Blood-glucose concentrations after a test meal compared to placebo” value in series [5] is listed as “statistically significant reduction”. The Lowering of fructosamine in [6] (30 micrograms four times a day, p=0.029) is 17.5 µmol/L; in [6] (60 micrograms four times a day, p=0.001) it was 22.6 µmol/L; in series [6] (60 micrograms three times a day, p=0.003) it was 24.1 µmol/L.

Take rat amylin: the values for the ED50 for inhibition of gastric emptying in [7] and in [9] were 2.2 µg and 0.43 µg, respectively. The ED50 derived from the logistic fit (plasma tritium AUC over 30 minutes) in series [8] was 0.35 µg.

Turning to “soluble insulin: soluble insulin given by subcutaneous injection”, in series [10], the “Duration of action (lasts for)” value is 4 to 6 h and the “Time to absorption following subcutaneous injection” value is 30 min.
